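Each compound was tested at five concentrations against cells in 96-well plates for 48 hours. The concentration for full growth arrest is given as TGI.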

Experiment in all cases: NCI-60 cell line screen, 48 h
Assay [1] relates to NCI-H226 lung.
Assay [2] relates to RXF 393 renal.
The test system of assay [3] is 786-0 renal.
Assay [4] relates to UACC-257 melanoma.
Assay [5] relates to U251 CNS.
In assay [6] the test system is SW-620 colon.
Assay [7] has as its system SK-OV-3 ovarian.
In assay [8] the test system is SK-MEL-28 melanoma.
The subject of assay [9] is UACC-62 melanoma.
Assay [10] has as its system UO-31 renal.
The test system of assay [11] is MALME-3M melanoma.
For assay [12], the system named is RPMI-8226 leukemia.

In the case of `CC1C(c2ccccc2)NC(c2ccccc2)CC1(N)C#N` (configuration not stated), the TGI in [1], in assay [2], in assay [3], in assay [4], in assay [5] and in [6] was greater than 100 µM in each case. Further, the TGI in assay [7], in [8], in [9] and in assay [10] was greater than 100 µM throughout.

Regarding `CC1CN=C(c2ccc(CN3CCC(CCCC4CCN(Cc5ccc(C6=NCC(C)N6)cc5)CC4)CC3)cc2)N1` (configuration not stated), the TGI in assay [1] is greater than 100 µM; in assay [2], greater than 100 µM; in [3] it was greater than 100 µM; in assay [4] it was 45.9 µM; in assay [5], greater than 100 µM; in assay [6], greater than 100 µM. Besides, the TGI in assay [11], in [7], in assay [8], in [9] and in assay [10] was greater than 100 µM each time.

Regarding `C=C(Cl)CN1c2ccccc2C=Cc2ccccc21`, the TGI in assay [1] is 70.2 µM; in [2], 33 µM; in assay [3], greater than 100 µM; in assay [4], 49.8 µM; in [5] it was 30.9 µM; in assay [11] it was 77.9 µM. Besides, the figures for the TGI in assay [7], in [9] and in [10] were greater than 100 µM, 44.2 µM and 82 µM, respectively.

On to `c1ccc(OCc2nnc(CCCCCCCCc3nnc(COc4ccccc4)o3)o2)cc1`, for which the TGI is greater than 100 µM in assay [1]; 30.8 µM in assay [2]; greater than 100 µM in assay [3]; greater than 100 µM in assay [4]; greater than 100 µM in assay [5]; greater than 100 µM in [6]. The TGI in assay [7], in assay [8] and in assay [10] was greater than 100 µM in each case.

As for `O=C(Cn1c(=O)oc2ccc(C(=O)c3cccc(Cl)c3)cc21)c1ccccc1`, the TGI in assay [1], in assay [4], in assay [5], in assay [6], in assay [11] and in assay [7] was greater than 100 µM each time. Moreover, the TGI in [8], in assay [12], in assay [9] and in assay [10] was greater than 100 µM each time.

With `NS(=O)(=O)c1ccc(NCc2nc3ccccc3[nH]2)cc1`, the TGI in [1], in assay [2], in [3], in assay [4], in [5] and in [11] was greater than 100 µM each time. The TGI in assay [7], in assay [9] and in [10] was greater than 100 µM throughout.

In the case of `Cc1cc(O)c(C(C)C)cc1C(=S)Nc1ccc(Cl)cc1`, the TGI in assay [3] came out at 27.3 µM; in assay [4], 23.8 µM; in assay [5], 27.8 µM; in assay [6] it was 33.9 µM; in [11] it was 21.9 µM; in [7] it was 36.4 µM. Besides, the TGI in assay [8] is 28.6 µM; in [12], 33 µM; in assay [9] it was 22.3 µM.

As to `O=c1onc(Nc2ccccc2)n1-c1ccccc1`, the TGI in [1], in [2], in assay [3], in assay [4], in assay [5] and in [6] was greater than 100 µM in each case. In addition, the TGI in assay [11], in assay [7], in [8], in assay [9] and in assay [10] was greater than 100 µM each time.

Take `CSc1nc(-c2ccccc2)nc(=[N+]2CCOCC2)s1`: the TGI in assay [1], in assay [2], in [3], in assay [5], in assay [6] and in [11] was greater than 100 µM throughout. Moreover, the TGI in assay [7], in assay [8], in assay [9] and in [10] was greater than 100 µM throughout.

In the case of `Cc1cc(S(=O)(=O)Nc2n[nH]c(Nc3ccccc3)n2)c(SSc2cc(Cl)c(C)cc2S(=O)(=O)Nc2n[nH]c(Nc3ccccc3)n2)cc1Cl`, the TGI in [2] is greater than 10 µM; in assay [4], greater than 100 µM; in assay [5], greater than 100 µM; in [6], greater than 100 µM; in [11], greater than 100 µM; in assay [7], greater than 100 µM. In addition, the TGI in assay [8], in [12], in [9] and in assay [10] was greater than 100 µM each time.

Turning to `CC(C)(C)CC(C)(C)NCC(O)COc1ccc(C(C)(C)c2ccc(OCC(O)CNC(C)(C)CC(C)(C)C)cc2)cc1` (configuration not stated), the TGI in assay [1] stood at 3.51 µM; in assay [2] it was 2.75 µM; in assay [3], 2.77 µM; in assay [5] it was 2.2 µM; in assay [6], 0.463 µM; in assay [11], 2.96 µM. The TGI in [7] was 3.24 µM; in [8] it was 1.85 µM; in assay [9], 3.31 µM; in assay [10], 2.98 µM.

For `NNS(=O)(=O)c1ccc(/C=C2\NC(=O)NC2=O)cc1`, the TGI in assay [1], in assay [3], in assay [4], in assay [5], in [6] and in [11] was greater than 100 µM throughout. The TGI in assay [7], in assay [8], in assay [12], in assay [9] and in [10] was greater than 100 µM in each case.

Regarding `Nc1ccc(C(=O)O)cc1`, the TGI in assay [1], in assay [3], in assay [4], in assay [5], in [6] and in assay [11] was greater than 100 µM in each case. Further, the TGI in [8], in [12] and in assay [10] was greater than 100 µM each time.

Turning to `Cc1ccc(S(=O)(=O)NC(=O)NC(CC(=O)O)C(=O)O)cc1` (configuration not stated), the TGI in assay [2], in assay [3], in assay [4], in [5], in assay [6] and in assay [11] was greater than 100 µM each time. The TGI in assay [7], in assay [8], in assay [12], in assay [9] and in assay [10] was greater than 100 µM each time.

For `CC(C)=C=CP(=O)(O)c1ccccc1`, the TGI in [1], in [3], in assay [4], in assay [5], in assay [6] and in assay [11] was greater than 100 µM in each case. Moreover, the TGI in assay [7], in [8] and in [9] was greater than 100 µM throughout.

As to `COc1ccc(C2=NN(c3nsc4ccccc34)C(=O)CC2)cc1`, the TGI in [2], in assay [4], in [5], in [6], in assay [8] and in assay [12] was greater than 100 µM in each case. The TGI in assay [9] and in [10] was greater than 100 µM in each case.

As to `CCCCCCCCCCOc1ccc(N=Nc2nnc(-c3ccc(OCCCCC)cc3)s2)cc1`, the TGI in assay [2], in assay [3], in [4], in assay [5], in assay [6] and in assay [11] was greater than 100 µM in each case. The TGI in assay [7], in assay [8], in assay [12] and in [9] was greater than 100 µM each time.

For `Clc1ncnc2c1nc(C#Cc1ccccc1)n2C1CCCCO1` (configuration not stated), the TGI in assay [1] came out at 6.47 µM; in assay [3], 3.64 µM; in [4], 6.01 µM; in assay [5], 4.29 µM; in [6], 4.94 µM; in assay [11], 3.91 µM. For the same compound, the TGI in assay [7] was found to be 21.3 µM; in assay [8], 4.78 µM; in assay [9], 5.84 µM; in [10], 3.38 µM.

Regarding `COc1cc2nc(-c3cccs3)nc(N3C(c4cc(OC)c(OC)c(OC)c4)=NNC(=O)c4ccccc43)c2cc1OC`, the TGI in assay [1] was greater than 100 µM; in assay [3] it was greater than 100 µM; in assay [4], greater than 100 µM; in [5] it was 50.4 µM; in [11], 45 µM; in [7], greater than 100 µM. Besides, the figures for the TGI in assay [8], in [9] and in [10] were 81.6 µM, 35.8 µM and greater than 100 µM, respectively.

Regarding `COc1ccc(/C=C2\OC(=O)C(Cl)=C2c2ccc(OC)c(Cl)c2)cc1`, the TGI in assay [2] was 29.5 µM; in assay [3], 35.5 µM; in assay [4], greater than 100 µM; in [5] it was greater than 100 µM; in assay [6], greater than 100 µM; in assay [11], 62.3 µM. In addition, the TGI in assay [7] is greater than 100 µM; in [8], greater than 100 µM; in assay [12] it was 81.8 µM; in [9], 80 µM; in assay [10] it was 48.2 µM.

Take `Cc1ccc(C(=O)N/N=C(\N=Nc2ccccc2C(=O)O)c2ccc(N(C)C)cc2)cc1`: the TGI in [1], in assay [3], in [4], in assay [5], in assay [6] and in assay [8] was greater than 100 µM in each case. For the same compound, the TGI in [12] and in [10] was greater than 100 µM each time.

Turning to `COc1cc(-c2nc(SC)nc3c2CCc2ccccc2-3)cc(OC)c1OC`, the TGI in assay [2], in assay [3], in [4], in assay [5], in assay [6] and in [7] was greater than 100 µM each time. Further, the TGI in [8] was greater than 100 µM; in assay [12], 68.8 µM; in assay [9], greater than 100 µM; in assay [10], greater than 100 µM.

For the compound `COc1ccc(/C=C(/c2ccc(OC)cc2)c2c(Cl)cc(Cl)c(/C(=C\c3ccc(OC)cc3)c3ccc(OC)cc3)c2N=Nc2ccccc2)cc1`, the TGI in assay [2], in assay [3], in assay [4], in [5], in assay [6] and in assay [11] was greater than 100 µM each time. For the same compound, the TGI in assay [7], in assay [8], in [12], in [9] and in assay [10] was greater than 100 µM in each case.

As to `CC(=O)c1c(O)cc(O)c(-c2c(C)cc(O)c3c2C(=O)c2cccc(O)c2C3=O)c1O`, the TGI amounted to 58.1 µM in assay [1]; 31.7 µM in assay [3]; 40 µM in [4]; 27.2 µM in assay [5]; 36.8 µM in assay [6]; 30.6 µM in assay [11]. Besides, the TGI amounted to 27.4 µM in assay [7]; 73.5 µM in assay [8]; 35.5 µM in assay [12]; 29.1 µM in assay [9]; 27.9 µM in assay [10].

On to `O=C(CN1CCN(c2ccccn2)CC1)N1CCCn2c1nc1ccccc1c2=O`, for which the TGI in assay [1], in assay [3], in [4], in [5], in assay [6] and in [11] was greater than 100 µM each time. Also, the TGI in assay [7], in assay [12], in assay [9] and in assay [10] was greater than 100 µM each time.

As to `O=[N+]([O-])c1ccc2nc(-c3ccc(Cl)cc3)[nH]c2c1`, the TGI is 58 µM in [1]; greater than 100 µM in assay [3]; 43.2 µM in [4]; greater than 100 µM in assay [6]; 63 µM in assay [11]; 60.4 µM in assay [7]. The TGI in [8] is greater than 100 µM; in assay [12], 57.4 µM; in assay [9], 42 µM; in [10], 59.7 µM.

On to `Cn1c2ccccc2c2c3c(c4c5ccccc5n(C)c4c21)C(=O)N(c1ccccc1)C3=O`, for which the TGI in [1], in assay [3], in assay [4], in assay [5], in [6] and in assay [11] was greater than 100 µM throughout. For the same compound, the TGI in assay [7], in [8], in assay [12], in assay [9] and in assay [10] was greater than 100 µM throughout.

The values are drawn from PubChem BioAssay (NCI).
